According to ChEMBL document CHEMBL1128987, “Benzenesulfonamide-peptide conjugates as probes for secondary binding sites near the active site of carbonic anhydrase” (Bioorg Med Chem Lett, 1996):

Experiments:
Carbonic anhydrase 2 [1] = target: T1, Carbonic anhydrase 2 (Homo sapiens, UniProt P00918); assay: Dissociation constant was determined against human carbonic anhydrase II at 37 degree Celsius in experiment 1
Carbonic anhydrase 2 [2] = target: T1, Carbonic anhydrase 2; assay: Dissociation constant was determined against human carbonic anhydrase II at 37 degree Centigrade in experiment 2
Carbonic anhydrase 2 [3] = target: T1, Carbonic anhydrase 2
Description: Kinetic constant for binding human carbonic anhydrase II

Kd (Carbonic anhydrase 2 [1]): 0.31 µM
Kd (Carbonic anhydrase 2 [2]): 0.33 µM
k off (Carbonic anhydrase 2 [3]): 0.12 s⁻¹
Structure (SMILES): NS(=O)(=O)c1ccc(C(=O)NCC(=O)O)cc1
